Laboratory results: PubChem BioAssay AID2060895 (Molecular Pharmacology Branch, DTP, NCI, 2025)

Test system: PDC 899932-113-R3-J6 complex spheroid viability
Test: Anticancer human tumor 899932-113-R3-J6-PDC patient-derived melanoma cell line growth inhibition [RAS]
Details: for IC50: curve of first compound; for viability, T/C: stronger effect = lower value; active means viability on the fitted dose curve at most 10% of control; inactive means the rest
Outline: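 Multi-cell-type spheroids: tumor cells plus HUVEC endothelial cells and mesenchymal stem cells. RAS-pathway inhibitors were combined with targeted agents, each dosed in half-log steps down from clinical Cmax, or from 10 microM when Cmax was unknown.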

[1] = second compound 0.00316 µM, first compound 0.00316 µM
[2] = second compound 0.00316 µM, first compound 0.01 µM
[3] = second compound 0.00316 µM, first compound 0.0316 µM
[4] = second compound 0.00316 µM, first compound 0.1 µM
[5] = second compound 0.01 µM, first compound 0.00316 µM
[6] = second compound 0.01 µM, first compound 0.01 µM
[7] = second compound 0.01 µM, first compound 0.0316 µM
[8] = second compound 0.01 µM, first compound 0.1 µM
[9] = second compound 0.0316 µM, first compound 0.00316 µM
[10] = second compound 0.0316 µM, first compound 0.01 µM
[11] = second compound 0.0316 µM, first compound 0.0316 µM
[12] = second compound 0.0316 µM, first compound 0.1 µM
[13] = second compound 0.1 µM, first compound 0.00316 µM
[14] = second compound 0.1 µM, first compound 0.01 µM
[15] = second compound 0.1 µM, first compound 0.0316 µM
[16] = second compound 0.1 µM, first compound 0.1 µM
[17] = second compound 0.316 µM, first compound 0.00316 µM
[18] = second compound 0.316 µM, first compound 0.01 µM
[19] = second compound 0.316 µM, first compound 0.0316 µM
[20] = second compound 0.316 µM, first compound 0.1 µM
[21] = second compound 1 µM, first compound 0.00316 µM
[22] = second compound 1 µM, first compound 0.01 µM
[23] = second compound 1 µM, first compound 0.0316 µM
[24] = second compound 1 µM, first compound 0.1 µM
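Wherever viability, T/C is given: spheroids exposed to agents for seven days before readout; 100% = DMSO vehicle control wells.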

O=C(c1ccc(F)c(F)c1Nc1ccc(I)cc1F)N1CC(O)([C@@H]2CCCCN2)C1 + C=CC(=O)N1CCN(c2nc(OCC3CCCN3C)nc3c(F)c(-c4nc(N)cc(C)c4C(F)(F)F)c(Cl)cc23)C(C)C1
8.47 nM: IC50 (second compound 0.1 µM)
5.71 nM: IC50 (second compound 0.00316 µM)
6.26 nM: IC50 (second compound 0.01 µM)
6.75 nM: IC50 (second compound 0.0316 µM)
inactive: viability, T/C [1] 71.1% | viability, T/C [2] 30% | viability, T/C [5] 74.8% | viability, T/C [6] 33% | viability, T/C [9] 81.8% | viability, T/C [10] 33.5% | viability, T/C [13] 73.9% | viability, T/C [14] 46% | viability, T/C [17] 74.5% | viability, T/C [18] 43.9% | viability, T/C [21] 72.8% | viability, T/C [22] 46%
active: viability, T/C [3] 6.25% | viability, T/C [4] 3.24% | viability, T/C (second compound 0.00316 µM, first compound 0.316 µM) 1.5% | viability, T/C (second compound 0.00316 µM, first compound 1 µM) 0.84% | viability, T/C [7] 5.84% | viability, T/C [8] 2.5% | viability, T/C (second compound 0.01 µM, first compound 0.316 µM) 1.9% | viability, T/C (second compound 0.01 µM, first compound 1 µM) 0.68% | viability, T/C [11] 7.48% | viability, T/C [12] 2.48% | viability, T/C (second compound 0.0316 µM, first compound 0.316 µM) 1.88% | viability, T/C (second compound 0.0316 µM, first compound 1 µM) 0.72% | viability, T/C [15] 7.56% | viability, T/C [16] 2.66% | viability, T/C (second compound 0.1 µM, first compound 0.316 µM) 1.89% | viability, T/C (second compound 0.1 µM, first compound 1 µM) 1.02% | viability, T/C [19] 9.69% | viability, T/C [20] 2.51% | viability, T/C (second compound 0.316 µM, first compound 0.316 µM) 1.92% | viability, T/C (second compound 0.316 µM, first compound 1 µM) 0.96% | viability, T/C [23] 7.46% | viability, T/C [24] 3.39% | viability, T/C (second compound 1 µM, first compound 0.316 µM) 1.9% | viability, T/C (second compound 1 µM, first compound 1 µM) 1.15%
7.95 nM: IC50 (second compound 0.316 µM)
8.43 nM: IC50 (second compound 1 µM)

CC(C)n1nc(-c2ccc3oc(N)nc3c2)c2c(N)ncnc21 + C=CC(=O)N1CCN(c2nc(OCC3CCCN3C)nc3c(F)c(-c4nc(N)cc(C)c4C(F)(F)F)c(Cl)cc23)C(C)C1
inactive: viability, T/C (second compound 0.00316 µM, first compound 0.000316 µM) 109% | viability, T/C (second compound 0.00316 µM, first compound 0.001 µM) 105% | viability, T/C [1] 114% | viability, T/C [2] 105% | viability, T/C [3] 79.6% | viability, T/C [4] 47.3% | viability, T/C (second compound 0.01 µM, first compound 0.000316 µM) 113% | viability, T/C (second compound 0.01 µM, first compound 0.001 µM) 116% | viability, T/C [5] 112% | viability, T/C [6] 115% | viability, T/C [7] 74.5% | viability, T/C [8] 52.6% | viability, T/C (second compound 0.0316 µM, first compound 0.000316 µM) 113% | viability, T/C (second compound 0.0316 µM, first compound 0.001 µM) 111% | viability, T/C [9] 102% | viability, T/C [10] 97.7% | viability, T/C [11] 75.7% | viability, T/C [12] 54.1% | viability, T/C (second compound 0.1 µM, first compound 0.000316 µM) 110% | viability, T/C (second compound 0.1 µM, first compound 0.001 µM) 121% | viability, T/C [13] 106% | viability, T/C [14] 92.2% | viability, T/C [15] 83.5% | viability, T/C [16] 52.3% | viability, T/C (second compound 0.316 µM, first compound 0.000316 µM) 98.9% | viability, T/C (second compound 0.316 µM, first compound 0.001 µM) 104% | viability, T/C [17] 111% | viability, T/C [18] 104% | viability, T/C [19] 85.5% | viability, T/C [20] 50% | viability, T/C (second compound 1 µM, first compound 0.000316 µM) 108% | viability, T/C (second compound 1 µM, first compound 0.001 µM) 108% | viability, T/C [21] 109% | viability, T/C [22] 100% | viability, T/C [23] 78.9% | viability, T/C [24] 54.8%
> 100 nM: IC50 (second compound 0.01 µM) | IC50 (second compound 0.0316 µM) | IC50 (second compound 0.1 µM) | IC50 (second compound 0.316 µM) | IC50 (second compound 1 µM)
90.7 nM: IC50 (second compound 0.00316 µM)
